The values below come from patent publication US20230295142A1, “NOVEL COMPOUNDS AS HISTONE DEACETYLASE 6 INHIBITOR, AND PHARMACEUTICAL COMPOSITION COMPRISING THE SAME” (CHONG KUN DANG PHARMACEUTICAL CORP., priority 2020, published 2023).

As usually defined, the pIC50 is the negative decadic logarithm of the IC50, by convention in mol/L.

pIC50: −log10 of the molar value.

For one experiment, the target named is HDAC6 human recombinant (Homo sapiens (Human), UniProt Q9UBN7). Description: HDAC6 enzyme activity inhibition (fluorimetric, in vitro). The class given is biochemical. The conditions noted are these: samples at 0.1, 1, 10, 100 and 1000 nM; 37° C. 60 minutes. As for the experimental part:
(§1) A HDAC enzyme inhibitory capacity of a test material was measured by using HDAC1 Fluorimetric Drug Discovery Assay Kit (Enzolifesciences: BML-AK511) and HDAC6 human recombinant (Calbiochem: 382180). For a HDAC1 assay, samples were treated at a concentration of 100, 1000 and 10000 nM. For a HDAC6 assay, samples were treated at a concentration of 0.1, 1, 10, 100 and 1000 nM. After the above sample treatment, a reaction was continued at 37° C. for 60 minutes, treated with a developer, and subjected to reaction at 37° C. for 30 minutes, after which fluorescence intensity (Ex 390, Em 460) was measured by using FlexStatin3 (Molecular device).

For another experiment, the target named is HDAC1 (Homo sapiens (Human), UniProt Q13547). Description: HDAC1 enzyme activity inhibition (HDAC1 Fluorimetric Drug Discovery Assay Kit). The class given is biochemical. The settings on record: samples at 100, 1000 and 10000 nM; 37° C. 60 minutes. As for the experimental part:
as §1

Chain of HDAC6 human recombinant (Q9UBN7 whole entry): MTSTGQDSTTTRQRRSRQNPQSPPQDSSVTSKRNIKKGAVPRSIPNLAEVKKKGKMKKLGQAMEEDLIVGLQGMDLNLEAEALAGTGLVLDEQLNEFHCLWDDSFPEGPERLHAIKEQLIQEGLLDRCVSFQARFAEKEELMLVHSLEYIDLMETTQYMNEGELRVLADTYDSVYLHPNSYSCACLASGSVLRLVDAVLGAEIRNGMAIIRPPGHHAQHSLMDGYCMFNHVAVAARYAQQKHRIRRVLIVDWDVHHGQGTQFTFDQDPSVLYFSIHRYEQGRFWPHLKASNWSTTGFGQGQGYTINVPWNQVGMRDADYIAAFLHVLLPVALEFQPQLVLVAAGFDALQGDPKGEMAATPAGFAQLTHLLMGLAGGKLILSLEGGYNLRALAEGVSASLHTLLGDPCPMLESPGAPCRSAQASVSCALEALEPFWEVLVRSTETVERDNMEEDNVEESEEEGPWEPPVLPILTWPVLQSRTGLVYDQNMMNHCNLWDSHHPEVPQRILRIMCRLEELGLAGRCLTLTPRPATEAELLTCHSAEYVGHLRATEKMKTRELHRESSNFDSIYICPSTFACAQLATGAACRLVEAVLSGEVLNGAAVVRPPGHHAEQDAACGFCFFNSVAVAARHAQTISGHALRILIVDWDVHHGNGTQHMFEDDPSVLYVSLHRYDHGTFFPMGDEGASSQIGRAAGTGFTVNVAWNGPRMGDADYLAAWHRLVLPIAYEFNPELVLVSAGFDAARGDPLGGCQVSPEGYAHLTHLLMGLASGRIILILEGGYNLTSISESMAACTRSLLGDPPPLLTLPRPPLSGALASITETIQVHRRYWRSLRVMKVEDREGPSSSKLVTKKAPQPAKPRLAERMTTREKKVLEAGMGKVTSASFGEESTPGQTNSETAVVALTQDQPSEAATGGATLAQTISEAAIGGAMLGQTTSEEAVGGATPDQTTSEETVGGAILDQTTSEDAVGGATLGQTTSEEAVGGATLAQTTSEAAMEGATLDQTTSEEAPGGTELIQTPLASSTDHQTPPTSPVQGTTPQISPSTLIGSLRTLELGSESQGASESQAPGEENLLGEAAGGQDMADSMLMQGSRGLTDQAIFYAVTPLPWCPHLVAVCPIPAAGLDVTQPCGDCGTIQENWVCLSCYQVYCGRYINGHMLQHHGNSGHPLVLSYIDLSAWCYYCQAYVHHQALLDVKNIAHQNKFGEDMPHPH
Chain of HDAC1 (Q13547 whole entry): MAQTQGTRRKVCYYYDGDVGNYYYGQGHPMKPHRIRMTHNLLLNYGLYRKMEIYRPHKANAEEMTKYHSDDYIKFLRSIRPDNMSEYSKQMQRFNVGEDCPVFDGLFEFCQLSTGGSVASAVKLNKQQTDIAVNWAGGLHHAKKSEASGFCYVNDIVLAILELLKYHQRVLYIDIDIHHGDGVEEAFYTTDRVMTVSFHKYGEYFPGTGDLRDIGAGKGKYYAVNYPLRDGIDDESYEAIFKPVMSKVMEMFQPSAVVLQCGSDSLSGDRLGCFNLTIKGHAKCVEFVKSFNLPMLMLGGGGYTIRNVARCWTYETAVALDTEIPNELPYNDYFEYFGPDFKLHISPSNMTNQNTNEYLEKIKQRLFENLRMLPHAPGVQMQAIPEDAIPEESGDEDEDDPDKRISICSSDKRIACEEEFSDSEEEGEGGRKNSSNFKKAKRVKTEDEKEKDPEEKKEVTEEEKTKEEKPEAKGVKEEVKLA

With `CC1(C)C(=O)N(c2ccccc2)C(=O)N1Cc1ccc(-c2nnc(C(F)F)o2)cc1F` [Compound 1, 1-(4-(5-(difluoromethyl)-1,3,4-oxadiazol-2-yl)-2-fluorobenzyl)-5,5-dimethyl-3-phenylimidazolidin-2,4-dione], the values for the pIC50 at HDAC6 human recombinant and at HDAC1 were 6.18 and less than 5.00, respectively.
In the same order, the values of `CC1(C)C(=O)N(c2ccccc2)C(=O)N1Cc1ccc(-c2nnc(C(F)(F)F)o2)cc1F` [Compound 2, 1-(2-fluoro-4-(5-(trifluoromethyl)-1,3,4-oxadiazol-2-yl)benzyl)-5,5-dimethyl-3-phenylimidazolidin-2,4-dione] are 6.02 and less than 5.00.
Take `O=C1CN(c2ccccc2)C(=O)N1Cc1ccc(-c2nnc(C(F)F)o2)cc1F` [Compound 3, 3-(4-(5-(difluoromethyl)-1,3,4-oxadiazol-2-yl)-2-fluorobenzyl)-1-phenylimidazolidin-2,4-dione]: the pIC50 at HDAC6 human recombinant was 6.66; against HDAC1 it was less than 5.00.
`O=C1CN(c2ccccc2)C(=O)N1Cc1ccc(-c2nnc(C(F)F)o2)cn1` [Compound 4, 3-((5-(5-(difluoromethyl)-1,3,4-oxadiazol-2-yl)pyridin-2-yl)methyl)-1-phenylimidazolidin-2,4-dione]: the pIC50 is 7.00 at HDAC6 human recombinant and less than 5.00 against HDAC1.
As for `CC(C)(C)OC(=O)N1CCC2(CC1)C(=O)N(Cc1ccc(-c3nnc(C(F)F)o3)cn1)C(=O)N2c1cccc(F)c1` [Compound 5, tert-butyl 3-((5-(5-(difluoromethyl)-1,3,4-oxadiazol-2-yl)pyridin-2-yl)methyl)-1-(3-fluorophenyl)-2,4-dioxo-1,3,8-triazaspiro[4.5]decan-8-carboxylate], the pIC50 at HDAC6 human recombinant is 6.69; at HDAC1 it was less than 5.00.
In the same order, the values of `CN1CCC2(CC1)C(=O)N(Cc1ccc(-c3nnc(C(F)F)o3)cn1)C(=O)N2c1cccc(F)c1` [Compound 6, 3-((5-(5-(difluoromethyl)-1,3,4-oxadiazol-2-yl)pyridin-2-yl)methyl)-1-(3-fluorophenyl)-8-methyl-1,3,8-triazaspiro[4.5]decan-2,4-dione] are 6.98 and less than 5.00.
As to `O=C1N(Cc2ccc(-c3nnc(C(F)F)o3)cn2)C(=O)C2(CCN(C3COC3)CC2)N1c1cccc(F)c1` [Compound 7, 3-((5-(5-(difluoromethyl)-1,3,4-oxadiazol-2-yl)pyridin-2-yl)methyl)-1-(3-fluorophenyl)-8-(oxetan-3-yl)-1,3,8-triazaspiro[4.5]decan-2,4-dione], the pIC50 was 7.00 on HDAC6 human recombinant and less than 5.00 on HDAC1.
For `CC(C)N1CCC2(CC1)C(=O)N(Cc1ccc(-c3nnc(C(F)F)o3)cn1)C(=O)N2c1cccc(F)c1` [Compound 8, 3-((5-(5-(difluoromethyl)-1,3,4-oxadiazol-2-yl)pyridin-2-yl)methyl)-1-(3-fluorophenyl)-8-isopropyl-1,3,8-triazaspiro[4.5]decan-2,4-dione] the same measures were 7.00 and less than 5.00.
In the same order, the values of `O=C1CN(c2ccccc2)C(=O)N1Cc1ncc(-c2nnc(C(F)F)o2)cn1` [Compound 9, 3-((5-(5-(difluoromethyl)-1,3,4-oxadiazol-2-yl)pyrimidin-2-yl)methyl)-1-phenylimidazolidin-2,4-dione] are 6.83 and less than 5.00.
For `CC1(C)C(=O)N(Cc2ccc(-c3nnc(C(F)F)o3)cn2)C(=O)N1c1cccc(F)c1` [Compound 10, 3-((5-(5-(difluoromethyl)-1,3,4-oxadiazol-2-yl)pyridin-2-yl)methyl)-1-(3-fluorophenyl)-5,5-dimethylimidazolidin-2,4-dione] the same measures were 7.28 and less than 5.00.
In the case of `CC1(C)C(=O)N(Cc2ccc(-c3nnc(C(F)F)o3)cn2)C(=O)N1c1cccc(Br)c1` [Compound 11, 1-(3-bromophenyl)-3-((5-(5-(difluoromethyl)-1,3,4-oxadiazol-2-yl)pyridin-2-yl)methyl)-5,5-dimethylimidazolidin-2,4-dione], the pIC50 on HDAC6 human recombinant is 7.25; against HDAC1, less than 5.00.
In the case of `CC1(C)C(=O)N(Cc2ccc(-c3nnc(C(F)F)o3)cn2)C(=O)N1c1ccc(F)cc1` [Compound 12, 3-((5-(5-(difluoromethyl)-1,3,4-oxadiazol-2-yl)pyridin-2-yl)methyl)-1-(4-fluorophenyl)-5,5-dimethylimidazolidin-2,4-dione], the pIC50 on HDAC6 human recombinant is 7.22; against HDAC1, less than 5.00.
In the same order, the values of `CC1(C)C(=O)N(Cc2ccc(-c3nnc(C(F)F)o3)cn2)C(=O)N1c1c(F)cccc1F` [Compound 13, 3-((5-(5-(difluoromethyl)-1,3,4-oxadiazol-2-yl)pyridin-2-yl)methyl)-1-(2,6-difluorophenyl)-5,5-dimethylimidazolidin-2,4-dione] are 7.57 and less than 5.00.
For `CC1(C)C(=O)N(Cc2ccc(-c3nnc(C(F)F)o3)cn2)C(=O)N1c1ccc(F)cc1F` [Compound 14, 3-((5-(5-(difluoromethyl)-1,3,4-oxadiazol-2-yl)pyridin-2-yl)methyl)-1-(2,4-difluorophenyl)-5,5-dimethylimidazolidin-2,4-dione] the same measures were 7.25 and less than 5.00.
For `CC1(C)C(=O)N(Cc2ccc(-c3nnc(C(F)F)o3)cn2)C(=O)N1c1cccc(F)c1F` [Compound 15, 3-((5-(5-(difluoromethyl)-1,3,4-oxadiazol-2-yl)pyridin-2-yl)methyl)-1-(2,3-difluorophenyl)-5,5-dimethylimidazolidin-2,4-dione] the same measures were 7.37 and less than 5.00.
For the molecule `CC1(C)C(=O)N(Cc2ccc(-c3nnc(C(F)F)o3)cn2)C(=O)N1c1ccc(F)c(F)c1` [Compound 16, 3-((5-(5-(difluoromethyl)-1,3,4-oxadiazol-2-yl)pyridin-2-yl)methyl)-1-(3,4-difluorophenyl)-5,5-dimethylimidazolidin-2,4-dione], the pIC50 at HDAC6 human recombinant is 6.85; against HDAC1, less than 5.00.
In the case of `CC1(C)C(=O)N(Cc2ccc(-c3nnc(C(F)F)o3)cn2)C(=O)N1c1cc(F)cc(F)c1` [Compound 17, 3-((5-(5-(difluoromethyl)-1,3,4-oxadiazol-2-yl)pyridin-2-yl)methyl)-1-(3,5-difluorophenyl)-5,5-dimethylimidazolidin-2,4-dione], the pIC50 was 7.16 on HDAC6 human recombinant and less than 5.00 against HDAC1.
In the same order, the values of `CC1(C)C(=O)N(Cc2ccc(-c3nnc(C(F)F)o3)cn2)C(=O)N1c1ccccc1` [Compound 18, 3-((5-(5-(difluoromethyl)-1,3,4-oxadiazol-2-yl)pyridin-2-yl)methyl)-5,5-dimethyl-1-phenylimidazolidin-2,4-dione] are 7.10 and less than 5.00.
In the same order, the values of `CN1CC=C(c2cccc(N3C(=O)N(Cc4ccc(-c5nnc(C(F)F)o5)cn4)C(=O)C3(C)C)c2)CC1` [Compound 19, 3-((5-(5-(difluoromethyl)-1,3,4-oxadiazol-2-yl)pyridin-2-yl)methyl)-5,5-dimethyl-1-(3-(1-methyl-1,2,3,6-tetrahydropyridin-4-yl)phenyl)imidazolidin-2,4-dione] are 7.07 and less than 5.00.
Regarding `CN1CCC(c2cccc(N3C(=O)N(Cc4ccc(-c5nnc(C(F)F)o5)cn4)C(=O)C3(C)C)c2)CC1` [Compound 20, 3-((5-(5-(difluoromethyl)-1,3,4-oxadiazol-2-yl)pyridin-2-yl)methyl)-5,5-dimethyl-1-(3-(1-methylpiperidin-4-yl)phenyl)imidazolidin-2,4-dione], the pIC50 on HDAC6 human recombinant is 7.05; at HDAC1 it was less than 5.00.
As for `CN1CC2(C1)C(=O)N(Cc1ccc(-c3nnc(C(F)F)o3)cn1)C(=O)N2c1ccccc1` [Compound 21, 7-((5-(5-(difluoromethyl)-1,3,4-oxadiazol-2-yl)pyridin-2-yl)methyl)-2-methyl-5-phenyl-2,5,7-triazaspiro[3.4]octan-6,8-dione], the figures for the pIC50 on HDAC6 human recombinant and on HDAC1 were 6.62 and less than 5.00, respectively.
For `CC(C)N1CC2(C1)C(=O)N(Cc1ccc(-c3nnc(C(F)F)o3)cn1)C(=O)N2c1ccccc1` [Compound 22, 7-((5-(5-(difluoromethyl)-1,3,4-oxadiazol-2-yl)pyridin-2-yl)methyl)-2-isopropyl-5-phenyl-2,5,7-triazaspiro[3.4]octan-6,8-dione] the same measures were 6.72 and less than 5.00.
For `CC(=O)N1CC2(C1)C(=O)N(Cc1ccc(-c3nnc(C(F)F)o3)cn1)C(=O)N2c1ccccc1` [Compound 23, 2-acetyl-7-((5-(5-(difluoromethyl)-1,3,4-oxadiazol-2-yl)pyridin-2-yl)methyl)-5-phenyl-2,5,7-triazaspiro[3.4]octan-6,8-dione], the figures for the pIC50 on HDAC6 human recombinant and on HDAC1 were 6.43 and less than 5.00, respectively.
In the same order, the values of `O=C1N(Cc2ccc(-c3nnc(C(F)F)o3)cn2)C(=O)C2(CCC2)N1c1ccccc1` [Compound 24, 7-((5-(5-(difluoromethyl)-1,3,4-oxadiazol-2-yl)pyridin-2-yl)methyl)-5-phenyl-5,7-diazaspiro[3.4]octan-6,8-dione] are 7.25 and less than 5.00.
In the same order, the values of `CC1(C)C(=O)N(Cc2ccc(-c3nnc(C(F)F)o3)cn2)C(=O)N1c1ccc(-c2ccoc2)cc1` [Compound 25, 3-((5-(5-(difluoromethyl)-1,3,4-oxadiazol-2-yl)pyridin-2-yl)methyl)-1-(4-(furan-3-yl)phenyl)-5,5-dimethylimidazolidin-2,4-dione] are 6.97 and less than 5.00.
